Results published in patent US20060040871A1, “Bacterial transforming agent” (priority 2003, published 2006).

Key:
[1] = tested on: MRSA; test: MIC of methicillin for MRSA isolates grown with glycine or GBE (Table 1); format: cell-based, Staphylococcus aureus
[2] = tested on: vancomycin- and gentamicin-resistant Enterococcus faecium; test: microbe, parasite or virus in culture; format: cell-based
Description: The agents of the present invention are not limited to the reversal of resistance in Staphylococcus. The test strains in Table 5 are patient-isolates of vancomycin- and gentamicin-resistant Enterococcus faecium. At the time of isolation, they were commonly resistant to all clinically useable antimicrobial agents.

## NCC(=O)O [Glycine, glycine]
[1]; L280, glycine 0.2M (1.5%)
  MIC of methicillin: 4 µg/mL
[1]; L281, glycine 0.02M (0.15%)
  MIC of methicillin: 32 µg/mL
[1]; L281, glycine 0.2M (1.5%)
  MIC of methicillin: 4 µg/mL
[1]; L282, glycine 0.02M (0.15%)
  MIC of methicillin: 32 µg/mL
[1]; L282, glycine 0.2M (1.5%)
  MIC of methicillin: 4 µg/mL
[1]; L283, glycine 0.02M (0.15%)
  MIC of methicillin: 32 µg/mL
[1]; L283, glycine 0.2M (1.5%)
  MIC of methicillin: 4 µg/mL
[1]; L284, glycine 0.02M (0.15%)
  MIC of methicillin: 32 µg/mL
[1]; L284, glycine 0.2M (1.5%)
  MIC of methicillin: 2 µg/mL
[1]; L285, glycine 0.02M (0.15%)
  MIC of methicillin: 32 µg/mL
[1]; L285, glycine 0.2M (1.5%)
  MIC of methicillin: 4 µg/mL
[1]; L286, glycine 0.02M (0.15%)
  MIC of methicillin: 32 µg/mL
[1]; L286, glycine 0.2M (1.5%)
  MIC of methicillin: 4 µg/mL
[1]; L287, glycine 0.02M (0.15%)
  MIC of methicillin: 32 µg/mL
[1]; L287, glycine 0.2M (1.5%)
  MIC of methicillin: 4 µg/mL
[1]; L288, glycine 0.02M (0.15%)
  MIC of methicillin: 32 µg/mL
[1]; L288, glycine 0.2M (1.5%)
  MIC of methicillin: 4 µg/mL
[1]; L289, glycine 0.02M (0.15%)
  MIC of methicillin: 32 µg/mL
[1]; L289, glycine 0.2M (1.5%)
  MIC of methicillin: 4 µg/mL
[1]; L290, glycine 0.02M (0.15%)
  MIC of methicillin: 32 µg/mL
[1]; L290, glycine 0.2M (1.5%)
  MIC of methicillin: 4 µg/mL
[1]; L291, glycine 0.02M (0.15%)
  MIC of methicillin: 32 µg/mL
[1]; L291, glycine 0.2M (1.5%)
  MIC of methicillin: 4 µg/mL
[1]; L292, glycine 0.02M (0.15%)
  MIC of methicillin: 32 µg/mL
[1]; L292, glycine 0.2M (1.5%)
  MIC of methicillin: 4 µg/mL
[1]; L293, glycine 0.02M (0.15%)
  MIC of methicillin: 32 µg/mL
[1]; L293, glycine 0.2M (1.5%)
  MIC of methicillin: 4 µg/mL
[1]; L294, glycine 0.02M (0.15%)
  MIC of methicillin: 32 µg/mL
[1]; L294, glycine 0.2M (1.5%)
  MIC of methicillin: 4 µg/mL
[1]; MC01 (EMRSA-1), glycine 0.02M (0.15%)
  MIC of methicillin: 32 µg/mL
[1]; MC01 (EMRSA-1), glycine 0.2M (1.5%)
  MIC of methicillin: 4 µg/mL
[1]; NCTC 12493, glycine 0.02M (0.15%)
  MIC of methicillin: 0.12 µg/mL
[1]; NCTC 12493, glycine 0.2M (1.5%)
  MIC of methicillin: 0.06 µg/mL
[1]; PS3-32 (EMRSA-1), glycine 0.02M (0.15%)
  MIC of methicillin: 32 µg/mL
[1]; PS3-32 (EMRSA-1), glycine 0.2M (1.5%)
  MIC of methicillin: 4 µg/mL
[1]; SN31 (EMRSA-1), glycine 0.02M (0.15%)
  MIC of methicillin: 32 µg/mL
[1]; SN31 (EMRSA-1), glycine 0.2M (1.5%)
  MIC of methicillin: 4 µg/mL
[1]; ST11 (EMRSA-1), glycine 0.02M (0.15%)
  MIC of methicillin: 32 µg/mL
[1]; ST11 (EMRSA-1), glycine 0.2M (1.5%)
  MIC of methicillin: 4 µg/mL
[1]; SW2-32 (EMRSA-1), glycine 0.02M (0.15%)
  MIC of methicillin: 32 µg/mL
[1]; SW2-32 (EMRSA-1), glycine 0.2M (1.5%)
  MIC of methicillin: 4 µg/mL
[2]; 0.2M glycine, Table 5
  strains tested achieving the target MIC of vancomycin of 2 mg/l: 50%
[2]; ATCC 29212, glycine 0.02M
  MIC of vancomycin: 4 µg/mL
[2]; ATCC 29212, glycine 0.2M
  MIC of vancomycin: 2 µg/mL
[2]; BBC, glycine 0.02M
  MIC of vancomycin: 16 µg/mL
[2]; BBC, glycine 0.2M
  MIC of vancomycin: 4 µg/mL
[2]; E254, glycine 0.02M
  MIC of vancomycin: 16 µg/mL
[2]; E254, glycine 0.2M
  MIC of vancomycin: 4 µg/mL
[2]; E267, glycine 0.02M
  MIC of vancomycin: 16 µg/mL
[2]; E267, glycine 0.2M
  MIC of vancomycin: 4 µg/mL
[2]; E271, glycine 0.02M
  MIC of vancomycin: 8 µg/mL
[2]; E271, glycine 0.2M
  MIC of vancomycin: 2 µg/mL
[2]; E285, glycine 0.02M
  MIC of vancomycin: 16 µg/mL
[2]; E285, glycine 0.2M
  MIC of vancomycin: 2 µg/mL
[2]; E297, glycine 0.02M
  MIC of vancomycin: 8 µg/mL
[2]; E297, glycine 0.2M
  MIC of vancomycin: 2 µg/mL
[2]; GBC, glycine 0.02M
  MIC of vancomycin: 8 µg/mL
[2]; GBC, glycine 0.2M
  MIC of vancomycin: 4 µg/mL
[2]; S226, glycine 0.02M
  MIC of vancomycin: 8 µg/mL
[2]; S226, glycine 0.2M
  MIC of vancomycin: 4 µg/mL
[2]; S227, glycine 0.02M
  MIC of vancomycin: 32 µg/mL
[2]; S227, glycine 0.2M
  MIC of vancomycin: 4 µg/mL
[2]; S283, glycine 0.02M
  MIC of vancomycin: 8 µg/mL
[2]; S283, glycine 0.2M
  MIC of vancomycin: 2 µg/mL
[2]; S302, glycine 0.02M
  MIC of vancomycin: 8 µg/mL
[2]; S302, glycine 0.2M
  MIC of vancomycin: 4 µg/mL
[2]; S315, glycine 0.02M
  MIC of vancomycin: 4 µg/mL
[2]; S315, glycine 0.2M
  MIC of vancomycin: 1 µg/mL
[2]; S317, glycine 0.02M
  MIC of vancomycin: 32 µg/mL
[2]; S317, glycine 0.2M
  MIC of vancomycin: 4 µg/mL
[2]; S319, glycine 0.02M
  MIC of vancomycin: 16 µg/mL
[2]; S319, glycine 0.2M
  MIC of vancomycin: 4 µg/mL
[2]; S333, glycine 0.02M
  MIC of vancomycin: 8 µg/mL
[2]; S333, glycine 0.2M
  MIC of vancomycin: 2 µg/mL
[2]; S337, glycine 0.02M
  MIC of vancomycin: 4 µg/mL
[2]; S337, glycine 0.2M
  MIC of vancomycin: 2 µg/mL
[2]; S393, glycine 0.02M
  MIC of vancomycin: 8 µg/mL
[2]; S393, glycine 0.2M
  MIC of vancomycin: 2 µg/mL
[2]; S497, glycine 0.02M
  MIC of vancomycin: 8 µg/mL
[2]; S497, glycine 0.2M
  MIC of vancomycin: 2 µg/mL
[2]; S556, glycine 0.02M
  MIC of vancomycin: 32 µg/mL
[2]; S556, glycine 0.2M
  MIC of vancomycin: 2 µg/mL
[2]; WBC, glycine 0.02M
  MIC of vancomycin: 8 µg/mL
[2]; WBC, glycine 0.2M
  MIC of vancomycin: 4 µg/mL
